Data as given in ChEMBL document CHEMBL4831513, “Discovery of quinazoline derivatives as a novel class of potent and in vivo efficacious LSD1 inhibitors by drug repurposing” (Eur J Med Chem, 2021).

Biological target: Lysine-specific histone demethylase 1A (Homo sapiens, UniProt O60341)
Description: Inhibition of recombinant full length LSD1 (unknown origin) transfected in Escherichia coli BL21 (DE) using H3K4me2 as substrate by flourescence based analysis

| SMILES | IC50 [µM] |
| --- | --- |
| COCCOc1cc2ncnc(Sc3ccc(C)cc3)c2cc1OCCOC | > 50 |
| C#Cc1cccc(Nc2ncnc3cc(OC)c(OC)cc23)c1 | > 50 |
| COCCOc1cc2ncnc(Sc3nnnn3C)c2cc1OCCOC | > 50 |

Other lines, results leading:

| IC50 [µM] | SMILES |
| --- | --- |
| > 50 | COCCOc1cc2ncnc(Nc3ccc(Br)cc3)c2cc1OCCOC |
| > 50 | COCCOc1cc2ncnc(Oc3cccc(Cl)c3)c2cc1OCCOC |
